We go through 13 molecules from ChEMBL document CHEMBL3045397, “Synthesis and anticonvulsant activity of some new series of pyrrole derivatives” (Med Chem Res, 2012).

For data set [1], the system named is Rattus norvegicus. Kind of data set: Anticonvulsant activity in SwissRattus norvegicus albino (rat) assessed as protection against pentamethylene tetrazole-induced seizures at 10 mg/kg, ip administered for 15 min prior to pentamethylene tetrazole induction relative to placebo. The data set is classed as functional.
For data set [2], the system named is Rattus norvegicus. Kind of data set: Anticonvulsant activity in SwissRattus norvegicus albino (rat) assessed as protection against pentamethylene tetrazole-induced seizures at 5 mg/kg, ip administered for 15 min prior to pentamethylene tetrazole induction relative to placebo. The data set is classed as functional.
For data set [3], the system named is Rattus norvegicus. The data set is described as follows: Toxicity in SwissRattus norvegicus albino (rat) up to 10 mg/kg, ip measured for 24 hr. The data set is classed as organism-based, Swiss albino. Details: dose 10 mg/kg, route intraperitoneal. The following applies: in vivo.

Active and inactive are the calls of the source. The calls are words filed in the database; no cut-off is given here.

Consider `CCOC(=O)c1[nH]c(/C=C/c2ccc([N+](=O)[O-])cc2)c(C(=O)OCC)c1C`, for which the outcome with Rattus norvegicus [1] (Swiss albino) and in the data set with Rattus norvegicus [2] (Swiss albino) was inactive.

`CCOC(=O)c1[nH]c(/C=C/c2ccc(OC)cc2)c(C(=O)OCC)c1C`: the result in the data set with Rattus norvegicus [1] (Swiss albino) and in the data set on Rattus norvegicus [2] (Swiss albino) was inactive.

Turning to `CCOC(=O)c1[nH]c(/C=C/c2ccc(O)cc2)c(C(=O)OCC)c1C`, the outcome with Rattus norvegicus [1] (Swiss albino) and in the data set on Rattus norvegicus [2] (Swiss albino) was inactive.

`COc1ccc(/C=C/c2[nH]c(C(=O)NNC(N)=S)c(C)c2C(=O)NNC(N)=S)cc1`: the Activity entry with Rattus norvegicus [3] is given as “Non-toxic”; in the data set on Rattus norvegicus [1] (route intraperitoneal), 0%; in the data set with Rattus norvegicus [2] (route intraperitoneal), 0%.

As to `CCOC(=O)c1[nH]c(/C=C/c2ccc(Cl)cc2)c(C(=O)OCC)c1C`, the result with Rattus norvegicus [1] (Swiss albino) and with Rattus norvegicus [2] (Swiss albino) was inactive.

`CCOC(=O)c1[nH]c(/C=C/c2ccc(N(C)C)cc2)c(C(=O)OCC)c1C`: the result in the data set on Rattus norvegicus [1] (Swiss albino) and with Rattus norvegicus [2] (Swiss albino) was inactive.

For the molecule `Cc1c(C(=O)NNC(N)=S)[nH]c(/C=C/c2ccc([N+](=O)[O-])cc2)c1C(=O)NNC(N)=S`, the Activity entry in the data set with Rattus norvegicus [3] is “Non-toxic”; in the data set on Rattus norvegicus [1] (route intraperitoneal), 0%; in the data set with Rattus norvegicus [2] (route intraperitoneal), 0%.

For the molecule `Cc1c(C(=O)NNC(N)=S)[nH]c(/C=C/c2ccccc2)c1C(=O)NNC(N)=S`, the Activity entry in the data set with Rattus norvegicus [3] is recorded as “Non-toxic”; with Rattus norvegicus [1] (route intraperitoneal) it was 66%; in the data set on Rattus norvegicus [2] (route intraperitoneal), 33%.

Consider `Cc1c(C(=O)NNC(N)=S)[nH]c(/C=C/c2ccc(Cl)cc2)c1C(=O)NNC(N)=S`, for which the Activity entry in the data set on Rattus norvegicus [3] is recorded as “Non-toxic”; in the data set with Rattus norvegicus [1] (route intraperitoneal), 48%; in the data set with Rattus norvegicus [2] (route intraperitoneal), 19%.

On to `CCOC(=O)c1[nH]c(/C=C/c2ccccc2)c(C(=O)OCC)c1C`, for which the outcome in the data set on Rattus norvegicus [1] (Swiss albino) and in the data set with Rattus norvegicus [2] (Swiss albino) was inactive.

Take `O=C1NC(=O)C(c2ccccc2)(c2ccccc2)N1` [PHENYTOIN]: the results for the Activity entry in the data set on Rattus norvegicus [3] and in the data set with Rattus norvegicus [1] (route intraperitoneal) were “Non-toxic” and 98%, respectively.

As to `Cc1c(C(=O)NNC(N)=S)[nH]c(/C=C/c2ccc(O)cc2)c1C(=O)NNC(N)=S`, the Activity entry is “Non-toxic” in the data set on Rattus norvegicus [3], 0% with Rattus norvegicus [1] (route intraperitoneal) and 0% with Rattus norvegicus [2] (route intraperitoneal).

Regarding `Cc1c(C(=O)NNC(N)=S)[nH]c(/C=C/c2ccc(N(C)C)cc2)c1C(=O)NNC(N)=S`, the Activity entry in the data set with Rattus norvegicus [3] is listed as “Non-toxic”; in the data set on Rattus norvegicus [1] (route intraperitoneal), 46%; in the data set with Rattus norvegicus [2] (route intraperitoneal) it was 21%.
